Experimental data published in US20180098993A1, “USE OF (2R, 6R)-HYDROXYNORKETAMINE, (S)-DEHYDRON[…] OTHER STER[…] AND HYDROXYLATED METABOLITES OF (R,S)- KETAMINE IN THE TREATMENT OF DEPRESSION AND NEUROPATHIC PAIN” (THE UNITED STATES OF AMERICA, AS REPRESENTED BY THE …, priority 2011, published 2018).
Where a name gives a salt, the structure may show the parent alone. Read-outs that look alike come from different tables or passages of the source.

Assays:
α7 nAChR = biological target: T1, α7 nAChR (Rattus norvegicus, UniProt Q05941); assay: whole-cell patch clamp, currents evoked by acetylcholine in KXα7R1; assay type: cell-based; details: for current evoked by 280 micromolar acetylcholine, normalized to current elicited by ACh alone (Mean): -80 mV, n=4; for inhibition at 0.1 µM: read-out: inhibition (α7) at 100 nM
T1 construct: expressed in transfected cells; host or cells: KXα7R1
T1 sequence (Q05941 23-502): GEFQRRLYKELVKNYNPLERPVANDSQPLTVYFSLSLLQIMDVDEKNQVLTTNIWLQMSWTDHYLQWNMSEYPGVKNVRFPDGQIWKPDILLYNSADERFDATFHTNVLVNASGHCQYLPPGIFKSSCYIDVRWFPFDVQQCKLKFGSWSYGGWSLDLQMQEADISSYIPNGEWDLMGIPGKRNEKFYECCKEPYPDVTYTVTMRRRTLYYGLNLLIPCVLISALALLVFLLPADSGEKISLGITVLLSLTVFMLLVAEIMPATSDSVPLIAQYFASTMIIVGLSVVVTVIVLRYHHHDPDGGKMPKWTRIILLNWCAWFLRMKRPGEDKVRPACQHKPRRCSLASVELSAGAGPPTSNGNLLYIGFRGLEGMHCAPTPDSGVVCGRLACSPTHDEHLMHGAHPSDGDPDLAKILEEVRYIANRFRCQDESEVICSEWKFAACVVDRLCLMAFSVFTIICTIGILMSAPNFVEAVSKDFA
Description: (§1) Without wishing to be bound to any particular theory applicants believe certain compounds of Formula I exert activity via serine racemase inhibition. Since nicotinic acetylcholine receptors (nAChR) have been validated as a target in analgesia applicants investigated the activity of DHNK at two nAChR subtypes, α7 and α3β4 nAChR. Patch-clamp technique in a whole-cell configuration was used to examine functional activity of ketamine, norketamine, DHNK and HNK metabolites at the α7 and α3β4 neuronal […] receptors (nAChRs). The activity of these compounds at the α3β4 nAChR was investigated using nicotine-stimulated 86Rb+ efflux assays in HEK293 cells expressing the α3β4 nAChR.
Since nicotinic acetylcholine receptors (nAChR) have been validated as a target in analgesia we have investigated the activity of DHNK ([…]) at two nAChR subtypes, α7 and α3β4 nAChR. The patch clamp in a whole cell configuration was used to examine functional activity of ketamine, norketamine, and the DHNK and HNK metabolites on currents evoked by 280 micromolar acetylcholine in the KXα7R1. The data was obtained at −80 mV and normalized to the amplitude of current elicited by ACh alone, n=4.

NMDA receptor = NMDA receptor inhibition; assay type: binding; details: for Ki: read-out: NMDAR Ki
Protocol: Certain compounds of Formula I discussed in this disclosure were tested in the above serine racemase assay, for NMDA receptor inhibition and inhibition of the nicotinic acetylcholine receptor subtype α7. The assay for nicotinic acetylcholorine receptor subtype α7 is given below in Example 6.

serine racemase [1] = biological target: T2, serine racemase (Homo sapiens, UniProt Q9GZT4); assay: serine racemase inhibition assay (intracellular D-serine by CE-LIF); assay type: cell-based; details: 36 h incubation, cell line not stated
T2 sequence (Q9GZT4 1-340): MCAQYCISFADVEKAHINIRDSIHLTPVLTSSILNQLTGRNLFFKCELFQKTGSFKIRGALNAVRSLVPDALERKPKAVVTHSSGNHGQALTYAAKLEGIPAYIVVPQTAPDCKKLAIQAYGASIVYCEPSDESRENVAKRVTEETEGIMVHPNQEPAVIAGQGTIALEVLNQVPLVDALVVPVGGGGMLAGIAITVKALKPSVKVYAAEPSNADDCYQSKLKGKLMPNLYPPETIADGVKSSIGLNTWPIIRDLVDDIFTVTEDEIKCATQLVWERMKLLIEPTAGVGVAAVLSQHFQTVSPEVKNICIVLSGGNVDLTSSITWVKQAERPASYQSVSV
Description: The cell lines selected for this study were PC-12 pheochromocytoma derived from rat adrenal medulla, human-derived 1321N1 astrocytoma, rat-derived C6 glioblastoma, and human-derived HepG2 hepatocellular carcinoma. All of the cell lines were obtained from ATCC (Manassas, Va., USA). The PC12 cells were maintained in RPMI7 1640 with L-Gln supplemented with 10% horse serum (heat inactivated), 5% FBS, 1% sodium pyruvate solution, 1% HEPES buffer and 1% penicillin/streptomycin solution. The 1321N1 and C6 cells were maintained in DMEM with L-Gln supplemented with 10% FBS and 1% penicillin/streptomycin solution. The HepG2 cells were maintained in E-MEM supplemented with 1% L-Gln, 10% FBS, 1% sodium pyruvate solution and 1% penicillin/streptomycin solution.
(§2) Instrumentation: The CE separations were performed with a P/ACE MDQ system equipped with a laser-induced fluorescence detector (Beckman Instruments, Fullerton, Calif., USA). The laser-induced fluorescence detection was carried out with excitation at 488 nm and emission at 520 nm. […] Quantification was accomplished using area ratios calculated for FITC-D-Ser with FITCD-Arg as the internal standard, where the concentration of the internal standard was set at 5 μM. […]

α3β4 nAChR = biological target: T3, α3β4 nAChR (Rattus norvegicus, UniProt P04757+P12392); assay: nicotine-stimulated 86Rb+ efflux in HEK293 cells expressing α3β4 nAChR; whole-cell patch clamp; assay type: cell-based
T3 construct: expressed in transfected cells; host or cells: HEK293
T3 sequence (P04757 26-499): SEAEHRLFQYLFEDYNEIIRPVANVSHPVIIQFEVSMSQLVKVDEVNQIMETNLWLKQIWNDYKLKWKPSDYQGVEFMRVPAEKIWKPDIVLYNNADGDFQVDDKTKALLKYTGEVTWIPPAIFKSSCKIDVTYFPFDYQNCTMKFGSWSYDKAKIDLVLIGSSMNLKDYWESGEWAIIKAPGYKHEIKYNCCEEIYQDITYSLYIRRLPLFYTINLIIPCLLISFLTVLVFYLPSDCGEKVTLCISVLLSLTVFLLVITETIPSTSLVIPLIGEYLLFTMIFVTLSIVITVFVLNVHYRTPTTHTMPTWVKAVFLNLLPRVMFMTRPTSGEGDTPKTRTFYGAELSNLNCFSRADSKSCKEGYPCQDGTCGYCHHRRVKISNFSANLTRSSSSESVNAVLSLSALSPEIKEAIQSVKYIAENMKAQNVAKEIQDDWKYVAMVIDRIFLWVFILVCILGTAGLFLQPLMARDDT
T3 sequence (P12392 21-495): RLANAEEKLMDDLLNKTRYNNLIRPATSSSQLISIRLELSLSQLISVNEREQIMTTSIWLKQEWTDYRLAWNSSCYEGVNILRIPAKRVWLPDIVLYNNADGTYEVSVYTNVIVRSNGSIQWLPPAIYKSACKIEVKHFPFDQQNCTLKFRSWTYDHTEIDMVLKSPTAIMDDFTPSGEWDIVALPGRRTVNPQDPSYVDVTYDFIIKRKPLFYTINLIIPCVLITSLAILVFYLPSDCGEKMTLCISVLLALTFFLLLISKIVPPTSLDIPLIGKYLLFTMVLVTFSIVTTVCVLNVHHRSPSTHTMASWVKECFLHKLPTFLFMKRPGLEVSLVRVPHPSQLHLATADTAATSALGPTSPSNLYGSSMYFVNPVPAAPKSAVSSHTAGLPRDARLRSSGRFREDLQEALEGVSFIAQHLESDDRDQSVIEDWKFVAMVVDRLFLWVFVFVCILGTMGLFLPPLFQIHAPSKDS
Description: as §1

[2] = plasma half-life and oral bioavailability (statement); details: in vivo
serine racemase [3] = biological target: T2, serine racemase; assay: intracellular D-serine concentration in 1321N1 astrocytoma cells; assay type: cell-based; parameters: host or cells: 1321N1 astrocytoma; details: read-out: IC50, reduction of intracellular D-serine
Description: Applicants have determined that ketamine inhibits NMDA (N-methyl-D-aspartic acid) receptors by inhibiting serine racemase and thereby limiting the concentration of D-serine available to interact with the NMDA receptor. An indirect inhibition of SR activity by ketamine or ketamine metabolites through the inhibition of nAChR activity was hypothesized. PC12 cells were chosen to test the hypothesis since the cell line expresses active SR and α7 and α3β4 nAChRs.
The cell lines selected for this study were PC-12 pheochromocytoma derived from rat adrenal medulla, human-derived 1321N1 astrocytoma, rat-derived C6 glioblastoma, and human-derived HepG2 hepatocellular carcinoma. All of the cell lines were obtained from ATCC (Manassas, Va., USA). […]
as §2

NC1(c2ccccc2Cl)CCCCC1=O (racemic) [(R,S)-norKet, norketamine]
activity at α7 nAChR (α7 nAChR): inactive
current evoked by 280 micromolar acetylcholine, normalized to current elicited by ACh alone (Mean) (α7 nAChR; 100 nM): 0.548
current evoked by 280 micromolar acetylcholine, normalized to current elicited by ACh alone (Mean) (α7 nAChR; 1000 nM): 0.287
inhibition at 0.1 µM (α7 nAChR): 46%

N[C@]1(c2ccccc2Cl)CCC=CC1=O [(S)-DHNK, (S)-1-amino-2′-chloro-5,6-dihydro-[1,1′-biphenyl]-2(1H)-one]
Ki (NMDA receptor): 39 µM

N[C@@]1(c2ccccc2Cl)CCCCC1=O [(R)-norKet, (R)-norketamine, reference compound]
Ki (NMDA receptor): 26.5 µM
IC50 (serine racemase [1]): 0.04 to 0.08 µM

N[C@@]1(c2ccccc2Cl)CCC[C@@H](O)C1=O [(2R,6R; 2S,6S)-hydroxynorketamine]
activity at the NMDA receptor (NMDA receptor): not active

N[C@@]1(c2ccccc2Cl)CCC=CC1=O [(R)-DHNK, (R)-5,6-dehydroxynorketamine hydrochloride]
Ki (NMDA receptor): 74.5 µM

NC1(c2ccccc2Cl)CCC=CC1=O (racemic) [(R,S)-DHNK, (R,S)-dehydronorketamine]
activity at α7 nAChR (α7 nAChR): potent inhibitor
current evoked by 280 micromolar acetylcholine, normalized to current elicited by ACh alone (Mean) (α7 nAChR; 100 nM): 0.407
current evoked by 280 micromolar acetylcholine, normalized to current elicited by ACh alone (Mean) (α7 nAChR; 1000 nM): 0.205
IC50 (α7 nAChR; read-out: IC50 (α7)): ~0.05 µM
IC50 (α7 nAChR; read-out: IC50 at α7 nAChR): 0.05 µM
activity at α3β4 nAChR (α3β4 nAChR): inactive
plasma half-life [2]: long
oral bioavailability [2]: orally bioavailable
IC50 (serine racemase [3]): 0.0164 µM

CNC1(c2ccccc2Cl)CCCCC1=O (centres unmarked) [ketamine]
activity at α7 nAChR (α7 nAChR): inactive
IC50 (α3β4 nAChR): 10 µM

N[C@]1(c2ccccc2Cl)CCCCC1=O [(S)-norKet, (S)-norketamine, reference compound]
Ki (NMDA receptor): 2.25 ± 0.22 µM
IC50 (serine racemase [1]): 0.05 to 0.12 µM

N[C@@]1(c2ccccc2Cl)CCC[C@@H](O)C1=O [(2S,6S)-HNK, (2S,6S)-6-Hydroxynorketamine Hydrochloride]
Ki (NMDA receptor): 21.2 µM
current evoked by 280 micromolar acetylcholine, normalized to current elicited by ACh alone (Mean) (α7 nAChR; 100 nM): 0.461
current evoked by 280 micromolar acetylcholine, normalized to current elicited by ACh alone (Mean) (α7 nAChR; 1000 nM): 0.361
inhibition at 0.1 µM (α7 nAChR): 54%
plasma half-life [2]: long
oral bioavailability [2]: orally bioavailable

N[C@]1(c2ccccc2Cl)CCC[C@H](O)C1=O (stereo in doubt) [(2R,6R)-HNK, (2R,6R)-6-Hydroxynorketamine Hydrochloride]
Ki (NMDA receptor): > 100 µM
current evoked by 280 micromolar acetylcholine, normalized to current elicited by ACh alone (Mean) (α7 nAChR; 100 nM): 0.489
current evoked by 280 micromolar acetylcholine, normalized to current elicited by ACh alone (Mean) (α7 nAChR; 1000 nM): 0.354
inhibition at 0.1 µM (α7 nAChR): 51%
